Values quoted from earlier work, collected in patent US20220400744A1, “POUCHED PRODUCT COMPRISING DISSOLVABLE COMPOSITION” (NICOVENTURES TRADING LIMITED, priority 2021, published 2022).
Read-outs that look alike come from different tables or passages of the source.

Assays:
[1] = for logP: Table 1, partition coefficient between octanol and water
[2] = when isolated; isomerizes to trans-bixin
[3] = for solubility in water / aqueous environment: water or aqueous environment (e.g., saliva)

solubility in water / aqueous environment [3] | Compound | logP [1] | further results
 | ethyl benzoic acid | 2.9 | 
 | isopropyl benzoic acid | 3.5 | 
 | CN1CCCC1c1cccnc1 (centres unmarked) [nicotine, reference compound] |  | partitioning into octanol ([1]; acidic pH, about 6.5 to about 4, protonated form): lower partitioning into octanol; partitioning into octanol ([1]; alkaline pH, about 7.5 to about 9, free base form): high partitioning into octanol
insoluble | COC(=O)/C=C/C(C)=C\C=C\C(C)=C\C=C\C=C(C)\C=C\C=C(C)\C=C\C(=O)O [bixin, (2E,4E,6E,8E,10E,12E,14E,16Z,18E)-20-methoxy-4,8,13,17-tetramethyl-20-oxoicosa-2,4,6,8,10,12,14,16,18-nonaenoic acid] |  | chemical stability [2]: chemically unstable; solubility in fats and alcohols ([3]; fats and alcohols): soluble
 | CC(C)[C@@H]1CC[C@@H](C)C[C@H]1OC(=O)CCC(=O)O [monomenthyl succinate] | 3 | 
water soluble | CC(/C=C/C=C(C)/C=C/C(=O)O)=C\C=C\C=C(C)\C=C\C=C(C)\C=C\C(=O)O (stereo in doubt) [norbixin, (2E,4E,6E,8E,10E,12E,14E,16E,18E)-4,8,13,17-tetramethylicosa-2,4,6,8,10,12,14,16,18-nonaenedioic acid] |  | 

Compound | solubility in water / aqueous environment [3] | logP [1] | further results
C=C(C)[C@@H]1CCC(C)=C[C@H]1c1c(O)cc(CCCCC)cc1O [CBD, cannabidiol, reference compound] | insoluble |  | logP value ([1]; CBD): about 6.5
